In PubChem BioAssay AID743341 (Broad Institute, 2014):
Records with an inconclusive call do not appear. Activity calls are given as the source filed them.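 How the source made its calls: active means fitted curve of myotube length rescue reaches 40% at or below the top valid tested dose in every replicate test; inconclusive means replicate tests give mixed outcomes; inactive means every replicate test inactive, including effects in the opposite direction.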

How the values were obtained:
[1] = test system: C2C12 myotubes + simvastatin, MHC imaging tube length, 48 h; test: rescue of myotube length under simvastatin, confirmation, orthogonal assay for statin myotoxicity suppressor project, imaging, C2C12 myotubes, MHC immunostaining, dry powder (AID 743341)
[2] = as above; details: C2C12 myotubes + simvastatin, MHC imaging tube length, 48 h

## C[C@H]1CN([C@@H](C)CO)C(=O)Cc2cc(NC(=O)Nc3cccc4ccccc34)ccc2O[C@H]1CN(C)Cc1ccc(C(=O)Nc2ccccc2N)cc1
[1]
  AC40: 4.57 µM

## C[C@@H]1CN([C@H](C)CO)C(=O)Cc2cc(NC(=O)C3CCCCC3)ccc2O[C@H]1CN(C)Cc1ccc(Cl)c(Cl)c1
[1]
  AC40: 7.84 µM

## C[C@H]1CN([C@@H](C)CO)C(=O)Cc2cc(NC(=O)CCCCCC(=O)Nc3ccccc3N)ccc2O[C@H]1CN(C)Cc1ccc(C(F)(F)F)cc1
[1]
  AC40: 10.3 µM

## C[C@H]1CN([C@@H](C)CO)S(=O)(=O)c2ccc(C#Cc3ccc(F)cc3)cc2O[C@@H]1CN(C)S(=O)(=O)c1cn(C)cn1
[1]
  AC40: 13 µM

## C[C@H]1CN([C@@H](C)CO)C(=O)Cc2cc(NC(=O)CCCCCC(=O)Nc3ccccc3N)ccc2O[C@H]1CN(C)Cc1ccc(Oc2ccccc2)cc1
[1]
  AC40: 3.07 µM

## C[C@@H]1CN([C@@H](C)CO)C(=O)c2cc(NC(=O)Cc3cn(C)c4ccccc34)ccc2O[C@@H]1CN(C)Cc1ccc(C(=O)Nc2ccccc2N)cc1
[1]
  AC40: 10.5 µM

## C[C@H](CO)N1C[C@H](C)[C@H](CN(C)CC2CCCCC2)Oc2ccc(NC(=O)CCCCCC(=O)Nc3ccccc3N)cc2CC1=O
[1]
  AC40: 13.2 µM

## C[C@H]1CN([C@@H](C)CO)C(=O)c2cc(C#Cc3ccncc3)cnc2O[C@@H]1CN(C)CC1CCCC1
[1]
  AC40: 8.86 µM

## C[C@@H]1CN([C@H](C)CO)C(=O)c2cccc(NC(=O)Nc3ccc4c(c3)OCO4)c2O[C@H]1CN(C)Cc1ccc(C(=O)Nc2ccccc2N)cc1
[1]
  AC40: 0.76 µM

## C[C@H](CO)N1C[C@H](C)[C@@H](CN(C)Cc2ccc(C(=O)Nc3ccccc3N)cc2)Oc2ccc(NC(=O)Cc3cn(C)c4ccccc34)cc2C1=O
[1]
  AC40: 10.2 µM

## C[C@@H]1CN([C@@H](C)CO)C(=O)c2cc(NC(=O)Cc3cn(C)c4ccccc34)ccc2O[C@H]1CN(C)Cc1ccc(C(=O)Nc2ccccc2N)cc1
[1]
  AC40: 10.9 µM

## C[C@H]1CN([C@@H](C)CO)C(=O)c2cc(N(C)C)ccc2O[C@@H]1CN(C)Cc1ccc(C(=O)Nc2ccccc2N)cc1
[1]
  AC40: 1.55 µM

## N#C[C@@H]1[C@@H](c2ccc(-c3ccc(F)cc3)cc2)[C@H](CO)N1C(=O)Cc1ccccc1
[1]
  AC40: 15 µM

## C[C@@H]1CN([C@@H](C)CO)C(=O)c2cccc(NC(=O)Nc3ccc4c(c3)OCO4)c2O[C@H]1CN(C)Cc1ccc(C(=O)Nc2ccccc2N)cc1
[1]
  AC40: 7.66 µM

## C[C@H]1CN([C@@H](C)CO)C(=O)Cc2cc(NC(=O)CCCCCC(=O)Nc3ccccc3N)ccc2O[C@H]1CN(C)CC1CCCCC1
[1]
  AC40: 8.03 µM

## C[C@H](CO)N1C[C@H](C)[C@H](CN(C)Cc2ccc(C(=O)Nc3ccccc3N)cc2)Oc2ccc(NC(=O)Nc3ccc(F)cc3)cc2CC1=O
[1]
  AC40: 0.655 µM

## C[C@@H]1CN([C@H](C)CO)C(=O)c2cc(NC(=O)Nc3cccc4ccccc34)ccc2O[C@@H]1CN(C)Cc1ccc(C(=O)Nc2ccccc2N)cc1
[1]
  AC40: 6.47 µM

## C[C@H](CO)N1C[C@H](C)[C@H](CN(C)Cc2ccc(C(=O)Nc3ccccc3N)cc2)Oc2ccc(N(C)C)cc2C1=O
[1]
  AC40: 0.581 µM

## C[C@H]1CN([C@@H](C)CO)S(=O)(=O)c2ccc(C#CC3CC3)cc2O[C@H]1CN(C)C(=O)Nc1cc(F)ccc1F
[1]
  AC40: 19.5 µM

## CC(C)=CCC/C(C)=C/CC/C(C)=C/CC/C(C)=C/CO
[1]
  AC40: 4.25 µM

## C[C@H](CO)N1C[C@H](C)[C@@H](CN(C)Cc2ccc(Oc3ccccc3)cc2)Oc2c(NC(=O)Nc3cccc4ccccc34)cccc2C1=O
[2]; at 19.5 µM (top of the series)
  rescue of myotube length: 14.7% (inactive)

## COc1ccc(-c2ccc([C@@H]3[C@@H](C#N)N(C(=O)NC4CCCC4)[C@H]3CO)cc2)cc1
[2]; at 19.5 µM (top of the series)
  rescue of myotube length: 7.03% (inactive)

## COc1ccc(S(=O)(=O)Nc2ccc3c(c2)CC(=O)N([C@H](C)CO)C[C@H](C)[C@@H](CN(C)Cc2ccc(Cl)c(Cl)c2)O3)cc1
[2]; at 19.5 µM (top of the series)
  rescue of myotube length: -14.2% (inactive)

## C[C@H](CO)N1C[C@H](C)[C@H](CN(C)Cc2ccc(C(=O)Nc3ccccc3N)cc2)Oc2ccc(NC(=O)Nc3cccc4ccccc34)cc2C1=O
[1]
  AC40: 5.9 µM

## C[C@@H]1CN([C@H](C)CO)C(=O)c2cccc(NC(=O)c3nc4ccccc4s3)c2O[C@@H]1CN(C)Cc1ccc(C(=O)Nc2ccccc2N)cc1
[1]
  AC40: 1.79 µM

## C[C@@H]1CN([C@H](C)CO)C(=O)Cc2cc(NS(=O)(=O)c3ccc(Cl)cc3)ccc2O[C@H]1CN(C)Cc1ccccc1
[2]; at 19.5 µM (top of the series)
  rescue of myotube length: 0.917% (inactive)

## Cc1noc(C)c1S(=O)(=O)Nc1ccc2c(c1)CC(=O)N([C@H](C)CO)C[C@@H](C)[C@@H](CN(C)Cc1ccc(-c3ccccc3)cc1)O2
[2]; at 21 µM (top of the series)
  rescue of myotube length: -14.9% (inactive)
